According to patent publication US9458170B2, “Compound of camptothecin and preparation and use thereof” (YULIANG LI, priority 2012, dated 2016):

Tests used:
Format in all cases: cell-based
[1] = test system: human lung cancer A549 cells; experiment: Cell Titre Glo luminescent cell viability assay, A549; conditions: 72 h, incubated 3 days, 0.3 nM~10 μM, 0.1% DMSO
Protocol: (§1) The human lung cancer A549 cells were cultured in DMEM medium (Gibco®) supplemented with 10% fetal bovine serum (Hyclone®), and human colon cancer SW620, HT-29 cells and human prostate cancer PC-3 cells were cultured in RPMI-1640 medium (Gibco®) supplemented with 10% fetal bovine serum (Hyclone®). The cells described above were cultured in 25 cm^2 or 75 cm^2 plastic cell culture flask (Corning®) filled with 95% air and 5% CO2 at 37° C., for 2˜3 passages per week. Cells were seeded in 96 well cell culture plates (Corning®) at a density of 1×10^3 cells/well (A549), 2×10^3 cells/well (SW620 and HT-29), 3×10^3 cells/well (PC-3), 195 μL/well, and cultured at 37° C., under 95% air and 5% CO2. After 24 h, compounds of this disclosure were added. All the compounds (dissolved in 100% DMSO) were serially diluted three times by 100% DMSO starting from 10 mM. 4 μL of the solution of each concentration was added to 96 μL serum free medium, respectively, and 5 μL diluted solution by medium was added to the culture plates seeded with the cancer cells. The final concentration of DMSO in culture medium was 0.1%, and the final concentration of the compound was 0.3 nM˜10 μM. The said cells were incubated at 37° C. for 3 days. 3 Days later, the viabilities of viable cells were measured by luminescent plate reader according to the reaction of ATP and luciferase (Cell Titre Glo® Luminescent Cell Viability Assay, Promega). This method can be used to evaluate effectiveness of the compounds according to their influences on the cell growth. The dose response curves were generated by the obtained data, and IC50 values were calculated with the program Prism.

[2] = test system: human colon cancer HT-29 cells; experiment: Cell Titre Glo luminescent cell viability assay, HT-29; conditions: 72 h, incubated 3 days, 0.3 nM~10 μM, 0.1% DMSO
Protocol: as §1

[3] = test system: human prostate cancer PC-3 cells; experiment: Cell Titre Glo luminescent cell viability assay, PC-3; conditions: 72 h, incubated 3 days, 0.3 nM~10 μM, 0.1% DMSO
Protocol: as §1

[4] = test system: human colon cancer SW620 cells; experiment: Cell Titre Glo luminescent cell viability assay, SW620; conditions: SW-620, 72 h, incubated 3 days, 0.3 nM~10 μM, 0.1% DMSO
Protocol: as §1

| Compound | IC50 [1] | IC50 [2] | IC50 [3] | IC50 [4] |
| --- | --- | --- | --- | --- |
| CC[C@@]1(O)C(=O)OCc2c1cc1n(c2=O)Cc2cc3cc(OC)ncc3nc2-1 [Example 1, (S)-4-ethyl-4-hydroxy-9-methoxy-1H-pyrano[3′,4′:6,7]indolizino[1,2-b][1,7]naphthyridine-3,14(4H,12H)-dione] | < 100 nM | < 100 nM | < 500 nM | < 100 nM |
| CC[C@@]1(O)C(=O)OCc2c1cc1n(c2=O)Cc2cc3c(OC)nccc3nc2-1 [Example 2, (S)-7-ethyl-7-hydroxy-1-methoxy-7H-pyrano[3′,4′:6,7]indolizino[1,2-b][1,6]naphthyridine-8,11(10H,13H)-dione] | > 1000 nM | < 1000 nM | > 1000 nM | < 500 nM |
| CC[C@@]1(O)C(=O)OCc2c1cc1n(c2=O)Cc2cc3c(O)nccc3nc2-1 [Example 3, (S)-7-ethyl-1,7-dihydroxy-7H-pyrano[3′,4′:6,7]indolizino[1,2-b][1,6]naphthyridine-8,11(10H,13H)-dione] | < 500 nM | < 1000 nM | > 1000 nM | < 500 nM |
| CC[C@@]1(O)C(=O)OCc2c1cc1n(c2=O)Cc2cc3c(N(C)C)nccc3nc2-1 [Example 4, (S)-1-(dimethylamino)-7-ethyl-7-hydroxy-7H-pyrano[3′,4′:6,7]indolizino[1,2-b][1,6]naphthyridine-8,11(10H,13H)-dione] | < 100 nM | > 1000 nM | < 500 nM | < 100 nM |
| CC[C@@]1(O)C(=O)OCc2c1cc1n(c2=O)Cc2cc3nc(OC)ccc3nc2-1 [Example 5, (S)-7-ethyl-7-hydroxy-2-methoxy-7H-pyrano[3′,4′:6,7]indolizino[1,2-b][1,5]naphthyridine-8,11(10H,13H)-dione] | < 100 nM | < 500 nM | < 500 nM | < 100 nM |
| CC[C@@]1(O)C(=O)OCc2c1cc1n(c2=O)Cc2cc3cc4c(cc3nc2-1)CCO4 [Example 6, (S)-7-ethyl-7-hydroxy-10,13-dihydro-2H-furo[2,3-g]pyrano[3′,4′:6,7]indolizino [1,2-b]quinoline-8,11(3H,7H)-dione] | > 1000 nM | < 1000 nM | > 1000 nM | < 500 nM |
| CC[C@@]1(O)C(=O)OCc2c1cc1n(c2=O)Cc2cc3cc(OC)c(O)cc3nc2-1 [Example 7, (S)-4-ethyl-4,8-dihydroxy-9-methoxy-1H-pyrano[3′,4′:6,7]indolizino[1,2-b]quinoline-3,14(4H,12H)-dione] | < 100 nM | < 100 nM | < 100 nM | < 100 nM |
| CC[C@@]1(O)C(=O)OCc2c1cc1n(c2=O)Cc2cc3cc(O)c(F)cc3nc2-1 [Example 8, (S)-4-ethyl-8-fluoro-4,9-dihydroxy-1H-pyrano[3′,4′:6,7]indolizino[1,2-b]quinoline-3,14(4H,12H)-dione] | < 100 nM | < 100 nM | < 100 nM | < 100 nM |
| CC[C@@]1(O)C(=O)OCc2c1cc1n(c2=O)Cc2cc3cc(OC)c(F)cc3nc2-1 [Example 9, (S)-4-ethyl-8-fluoro-4-hydroxy-9-methoxy-1H-pyrano[3′,4′:6,7]indolizino[1,2-b]quinoline-3,14(4H,12H)-dione] | < 100 nM | < 100 nM | < 100 nM | < 100 nM |
| CC[C@@]1(O)C(=O)OCc2c1cc1n(c2=O)Cc2cc3ccc(OC)c(O)c3nc2-1 [Example 10, (S)-4-ethyl-4,7-dihydroxy-8-methoxy-1H-pyrano[3′,4′:6,7]indolizino[1,2-b]quinoline-3,14(4H,12H)-dione] | < 500 nM | < 500 nM | < 500 nM | < 100 nM |
| CC[C@@]1(O)C(=O)OCc2c1cc1n(c2=O)Cc2c-1nc1cc(F)c(OC)cc1c2N [Example 11, (S)-11-amino-4-ethyl-8-fluoro-4-hydroxy-9-methoxy-1H-pyrano[3′,4′:6,7]indolizino[1,2-b]quinoline-3,14(4H,12H)-dione] | < 100 nM | < 500 nM | < 100 nM | < 100 nM |
| CC[C@@]1(O)C(=O)OCc2c1cc1n(c2=O)Cc2c-1nc1cc(F)c(OC)cc1c2C [Example 12, (S)-4-ethyl-8-fluoro-4-hydroxy-9-methoxy-11-methyl-1H-pyrano[3′,4′:6,7]indolizino[1,2-b]quinoline-3,14(4H,12H)-dione] | < 100 nM | < 100 nM | < 100 nM | < 100 nM |
